Columns and labels:
Assay in all cases: HotSpot kinase assay
Conditions in all cases: read-out: % Enzyme Activity (relative to DMSO control), 10 uM
LCK = LCK (Homo sapiens, UniProt P06239)
Description: (§1) Additionally, a 10-dose dilution series of staurosporine and other enzyme-appropriate compounds were included as positive control inhibitors.

RIPK4 = RIPK4 (Homo sapiens, UniProt P57078)
Description: as §1

IKKe/IKBKE = IKKe/IKBKE (Homo sapiens, UniProt Q14164)
Description: as §1

DYRK1B = DYRK1B (Homo sapiens, UniProt Q9Y463)
Description: as §1

MNK2 = MNK2 (Homo sapiens, UniProt Q9HBH9)
CDK6/cyclin D3 = CDK6/cyclin D3 (Homo sapiens, UniProt Q00534)
Description: as §1

HIPK1 = HIPK1 (Homo sapiens, UniProt Q86Z02)
Description: as §1

BRSK1 = BRSK1 (Homo sapiens, UniProt Q8TDC3)
Description: as §1

CDK5/P25 = CDK5/P25 (Homo sapiens, UniProt Q00535)
Description: as §1

ERN2/IRE2 = ERN2/IRE2 (Homo sapiens, UniProt Q76MJ5)
Description: as §1

CAMKK1 = CAMKK1 (Homo sapiens, UniProt Q8N5S9)
Description: as §1

PBK/TOPK = PBK/TOPK (Homo sapiens, UniProt Q96KB5)
Description: as §1

COT1/MAP3K8 = COT1/MAP3K8 (Homo sapiens, UniProt P41279)
Description: as §1

RIPK5 = RIPK5 (Homo sapiens, UniProt Q6XUX3)
Description: as §1

LRRK2 = LRRK2 (Homo sapiens, UniProt Q5S007)
Description: as §1

LKB1 = LKB1 (Homo sapiens, UniProt Q15831)
Description: as §1

AXL = AXL (Homo sapiens, UniProt P30530)
Description: as §1

PKCnu/PRKD3 = PKCnu/PRKD3 (Homo sapiens, UniProt O94806)
Description: as §1

FES/FPS = FES/FPS (Homo sapiens, UniProt P07332)
MEK3 = MEK3 (Homo sapiens, UniProt P46734)
TRKC = TRKC (Homo sapiens, UniProt Q16288)
Description: as §1

PKA = PKA (Homo sapiens, UniProt P17612)
Description: as §1

MYO3A = MYO3A (Homo sapiens, UniProt Q8NEV4)
Description: as §1

TTBK2 = TTBK2 (Homo sapiens, UniProt Q6IQ55)
Description: as §1

JAK1 = JAK1 (Homo sapiens, UniProt P23458)
Description: as §1

ASK1/MAP3K5 = ASK1/MAP3K5 (Homo sapiens, UniProt Q99683)
Description: as §1

MLCK/MYLK = MLCK/MYLK (Homo sapiens, UniProt Q15746)
Description: as §1

TRKB = TRKB (Homo sapiens, UniProt Q16620)
DMPK2 = DMPK2 (Homo sapiens, UniProt Q6DT37)
Description: as §1

DCAMKL2 = DCAMKL2 (Homo sapiens, UniProt Q8N568)
TESK2 = TESK2 (Homo sapiens, UniProt Q96S53)
PAK6 = PAK6 (Homo sapiens, UniProt Q9NQU5)
Description: as §1

MSK2/RPS6KA4 = MSK2/RPS6KA4 (Homo sapiens, UniProt O75676)
Description: as §1

EPHA3 = EPHA3 (Homo sapiens, UniProt P29320)
Description: as §1

HCK = HCK (Homo sapiens, UniProt P08631)
PKCb1 = PKCb1 (Homo sapiens, UniProt P05771)
Description: as §1

TNIK = TNIK (Homo sapiens, UniProt Q9UKE5)
CAMK4 = CAMK4 (Homo sapiens, UniProt Q16566)
Description: as §1

AMPK (A1/B2/G3) = AMPK (A1/B2/G3) (Homo sapiens, UniProt Q13131)
PLK1 = PLK1 (Homo sapiens, UniProt P53350)

LKB1, sequence (Q15831 whole entry): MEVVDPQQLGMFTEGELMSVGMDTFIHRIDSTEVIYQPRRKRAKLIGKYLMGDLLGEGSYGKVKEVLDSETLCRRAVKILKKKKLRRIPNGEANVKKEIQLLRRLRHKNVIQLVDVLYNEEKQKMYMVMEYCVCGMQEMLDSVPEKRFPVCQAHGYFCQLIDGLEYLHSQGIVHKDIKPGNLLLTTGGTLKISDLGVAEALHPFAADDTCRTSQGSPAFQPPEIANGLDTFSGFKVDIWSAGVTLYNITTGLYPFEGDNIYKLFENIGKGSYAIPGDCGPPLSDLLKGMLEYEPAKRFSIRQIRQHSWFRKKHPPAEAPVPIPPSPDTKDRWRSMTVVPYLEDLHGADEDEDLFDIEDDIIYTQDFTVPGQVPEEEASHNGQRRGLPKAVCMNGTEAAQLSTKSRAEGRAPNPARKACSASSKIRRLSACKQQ
LKB1, sequence (Q7RTN6 whole entry partner): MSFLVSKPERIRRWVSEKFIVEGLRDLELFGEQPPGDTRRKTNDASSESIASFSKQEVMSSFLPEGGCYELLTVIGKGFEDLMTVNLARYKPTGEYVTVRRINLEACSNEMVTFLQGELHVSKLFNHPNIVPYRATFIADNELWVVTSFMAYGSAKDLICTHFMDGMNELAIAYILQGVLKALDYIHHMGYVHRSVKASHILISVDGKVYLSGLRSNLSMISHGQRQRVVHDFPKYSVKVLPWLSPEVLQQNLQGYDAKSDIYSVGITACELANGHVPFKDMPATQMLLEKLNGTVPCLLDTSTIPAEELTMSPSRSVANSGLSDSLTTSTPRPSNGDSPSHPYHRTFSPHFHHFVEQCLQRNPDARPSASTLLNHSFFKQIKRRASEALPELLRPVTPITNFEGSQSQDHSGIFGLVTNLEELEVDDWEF
LKB1, sequence (Q9Y376 whole entry partner): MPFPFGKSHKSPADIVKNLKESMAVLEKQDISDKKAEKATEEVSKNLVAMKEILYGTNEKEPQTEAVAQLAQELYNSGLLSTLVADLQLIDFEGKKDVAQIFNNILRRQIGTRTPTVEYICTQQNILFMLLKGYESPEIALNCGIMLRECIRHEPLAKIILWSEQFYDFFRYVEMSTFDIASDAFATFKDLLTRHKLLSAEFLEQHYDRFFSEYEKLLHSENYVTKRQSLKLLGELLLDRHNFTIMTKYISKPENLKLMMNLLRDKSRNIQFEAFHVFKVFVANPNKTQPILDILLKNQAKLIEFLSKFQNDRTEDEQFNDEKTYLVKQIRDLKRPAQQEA
EPHA3, sequence (P29320 21-983): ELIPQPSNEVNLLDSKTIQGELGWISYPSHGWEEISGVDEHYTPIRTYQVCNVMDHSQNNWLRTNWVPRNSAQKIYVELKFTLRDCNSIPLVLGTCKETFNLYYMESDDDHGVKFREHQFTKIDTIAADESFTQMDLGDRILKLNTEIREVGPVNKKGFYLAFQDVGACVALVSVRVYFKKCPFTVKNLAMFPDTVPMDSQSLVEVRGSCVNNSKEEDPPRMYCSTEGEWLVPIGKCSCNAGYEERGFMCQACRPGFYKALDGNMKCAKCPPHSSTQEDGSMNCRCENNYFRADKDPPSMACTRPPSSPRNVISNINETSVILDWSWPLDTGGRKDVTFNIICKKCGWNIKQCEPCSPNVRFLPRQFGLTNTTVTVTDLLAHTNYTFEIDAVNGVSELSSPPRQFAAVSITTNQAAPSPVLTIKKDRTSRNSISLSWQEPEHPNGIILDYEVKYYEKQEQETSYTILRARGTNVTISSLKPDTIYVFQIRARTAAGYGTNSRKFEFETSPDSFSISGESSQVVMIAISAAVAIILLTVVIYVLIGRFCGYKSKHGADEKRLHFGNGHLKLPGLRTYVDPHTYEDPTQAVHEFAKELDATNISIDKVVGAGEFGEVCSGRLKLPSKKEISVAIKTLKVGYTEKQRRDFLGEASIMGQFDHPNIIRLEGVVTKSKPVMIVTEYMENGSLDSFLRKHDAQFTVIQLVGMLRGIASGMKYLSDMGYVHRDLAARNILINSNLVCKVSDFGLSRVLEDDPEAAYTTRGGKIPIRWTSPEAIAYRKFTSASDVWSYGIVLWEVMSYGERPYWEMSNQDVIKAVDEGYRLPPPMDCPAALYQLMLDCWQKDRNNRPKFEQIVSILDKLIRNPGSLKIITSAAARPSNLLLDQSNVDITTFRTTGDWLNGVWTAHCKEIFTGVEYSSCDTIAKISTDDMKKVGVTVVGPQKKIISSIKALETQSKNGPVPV
HIPK1, sequence (Q86Z02 whole entry): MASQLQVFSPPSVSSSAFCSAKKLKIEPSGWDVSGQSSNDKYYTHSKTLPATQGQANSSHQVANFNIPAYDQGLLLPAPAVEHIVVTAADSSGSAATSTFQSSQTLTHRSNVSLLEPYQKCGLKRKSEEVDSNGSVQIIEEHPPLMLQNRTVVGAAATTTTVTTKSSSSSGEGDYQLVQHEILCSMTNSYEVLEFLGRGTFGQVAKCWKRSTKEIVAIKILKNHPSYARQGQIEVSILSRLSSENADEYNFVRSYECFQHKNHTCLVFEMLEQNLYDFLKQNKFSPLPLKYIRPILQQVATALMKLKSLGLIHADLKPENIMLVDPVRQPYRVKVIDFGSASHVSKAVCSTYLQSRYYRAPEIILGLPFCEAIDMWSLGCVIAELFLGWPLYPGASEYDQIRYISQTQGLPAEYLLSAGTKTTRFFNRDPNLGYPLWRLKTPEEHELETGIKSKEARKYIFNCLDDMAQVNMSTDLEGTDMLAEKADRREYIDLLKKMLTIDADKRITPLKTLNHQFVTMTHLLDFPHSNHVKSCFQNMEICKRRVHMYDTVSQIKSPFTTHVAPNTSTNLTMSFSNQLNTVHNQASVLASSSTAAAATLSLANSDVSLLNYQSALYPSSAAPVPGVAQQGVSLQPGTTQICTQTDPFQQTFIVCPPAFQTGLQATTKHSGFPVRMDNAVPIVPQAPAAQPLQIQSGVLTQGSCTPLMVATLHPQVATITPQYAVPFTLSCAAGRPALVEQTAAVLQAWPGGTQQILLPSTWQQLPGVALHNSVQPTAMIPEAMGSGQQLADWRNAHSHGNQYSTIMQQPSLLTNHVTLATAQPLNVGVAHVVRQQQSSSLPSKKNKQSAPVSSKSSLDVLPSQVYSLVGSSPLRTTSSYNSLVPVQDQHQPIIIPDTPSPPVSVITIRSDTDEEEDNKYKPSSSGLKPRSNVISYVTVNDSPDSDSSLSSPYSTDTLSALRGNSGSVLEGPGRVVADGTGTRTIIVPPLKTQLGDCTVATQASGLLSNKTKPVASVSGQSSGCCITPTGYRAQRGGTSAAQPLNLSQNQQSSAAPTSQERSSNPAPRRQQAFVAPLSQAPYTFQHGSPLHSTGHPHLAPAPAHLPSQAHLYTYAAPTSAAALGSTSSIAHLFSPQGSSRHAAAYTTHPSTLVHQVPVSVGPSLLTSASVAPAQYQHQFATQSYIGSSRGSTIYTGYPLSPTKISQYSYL
MNK2, sequence (Q9HBH9 whole entry): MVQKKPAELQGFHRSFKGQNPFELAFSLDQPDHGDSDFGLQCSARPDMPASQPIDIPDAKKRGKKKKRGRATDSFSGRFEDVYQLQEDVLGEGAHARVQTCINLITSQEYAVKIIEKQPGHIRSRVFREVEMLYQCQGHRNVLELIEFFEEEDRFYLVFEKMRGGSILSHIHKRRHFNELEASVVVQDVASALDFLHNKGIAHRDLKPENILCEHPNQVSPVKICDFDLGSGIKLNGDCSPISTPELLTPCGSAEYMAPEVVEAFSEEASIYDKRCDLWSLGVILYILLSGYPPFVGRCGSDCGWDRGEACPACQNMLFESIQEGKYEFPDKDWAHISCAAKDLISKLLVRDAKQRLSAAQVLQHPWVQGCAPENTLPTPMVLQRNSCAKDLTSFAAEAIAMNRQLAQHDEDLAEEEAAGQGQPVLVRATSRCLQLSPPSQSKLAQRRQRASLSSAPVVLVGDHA
DCAMKL2, sequence (Q8N568 whole entry): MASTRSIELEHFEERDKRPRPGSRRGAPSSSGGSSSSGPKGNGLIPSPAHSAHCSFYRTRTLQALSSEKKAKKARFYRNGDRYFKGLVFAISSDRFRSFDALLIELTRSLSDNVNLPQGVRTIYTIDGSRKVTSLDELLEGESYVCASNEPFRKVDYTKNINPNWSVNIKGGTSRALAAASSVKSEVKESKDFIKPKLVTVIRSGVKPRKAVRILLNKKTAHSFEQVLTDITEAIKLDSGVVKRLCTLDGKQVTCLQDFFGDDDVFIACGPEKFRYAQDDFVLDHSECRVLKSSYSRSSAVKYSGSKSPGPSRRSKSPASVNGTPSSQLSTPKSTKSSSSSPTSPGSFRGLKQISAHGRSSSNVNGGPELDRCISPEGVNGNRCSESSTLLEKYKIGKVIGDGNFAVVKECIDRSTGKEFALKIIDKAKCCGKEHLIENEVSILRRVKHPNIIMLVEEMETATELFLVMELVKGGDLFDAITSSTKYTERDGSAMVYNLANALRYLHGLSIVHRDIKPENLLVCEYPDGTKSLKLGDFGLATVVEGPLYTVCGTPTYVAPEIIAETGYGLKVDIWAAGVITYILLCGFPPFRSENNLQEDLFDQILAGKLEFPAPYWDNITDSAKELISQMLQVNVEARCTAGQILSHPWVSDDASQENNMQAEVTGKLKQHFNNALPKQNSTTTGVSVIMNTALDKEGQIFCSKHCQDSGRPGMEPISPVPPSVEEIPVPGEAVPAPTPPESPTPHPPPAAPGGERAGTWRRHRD
MEK3, sequence (P46734 whole entry): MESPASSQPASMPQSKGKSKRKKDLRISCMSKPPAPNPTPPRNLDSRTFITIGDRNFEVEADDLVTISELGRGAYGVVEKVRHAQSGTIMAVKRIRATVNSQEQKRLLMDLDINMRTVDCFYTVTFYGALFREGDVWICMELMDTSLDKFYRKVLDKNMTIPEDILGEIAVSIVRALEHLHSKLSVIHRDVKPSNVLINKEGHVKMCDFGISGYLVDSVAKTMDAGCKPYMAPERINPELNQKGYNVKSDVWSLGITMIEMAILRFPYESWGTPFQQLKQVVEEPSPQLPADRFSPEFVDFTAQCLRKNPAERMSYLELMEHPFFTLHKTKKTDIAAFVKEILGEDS

Compound: C#C[C@@](C)(c1ccc(Cl)cc1)c1csc(NC(=O)c2c(F)cc(N3CCNCC3)cc2F)n1 (stereo in doubt) [DF-003]
- remaining activity at 10 µM (LCK): 121%
- remaining activity at 10 µM (RIPK4): 48.3%
- remaining activity at 10 µM (IKKe/IKBKE): 104%
- remaining activity at 10 µM (DYRK1B): 88.5%
- remaining activity at 10 µM (MNK2): 90.7%
- remaining activity at 10 µM (CDK6/cyclin D3): 79.4%
- remaining activity at 10 µM (HIPK1): 104%
- remaining activity at 10 µM (BRSK1): 116%
- remaining activity at 10 µM (CDK5/P25): 98.6%
- remaining activity at 10 µM (ERN2/IRE2): 62.1%
- remaining activity at 10 µM (CAMKK1): 92.8%
- remaining activity at 10 µM (PBK/TOPK): 90.5%
- remaining activity at 10 µM (COT1/MAP3K8): 20.7%
- remaining activity at 10 µM (RIPK5): 82%
- remaining activity at 10 µM (LRRK2): 99.2%
- remaining activity at 10 µM (LKB1): 86.5%
- remaining activity at 10 µM (AXL): 47.9%
- remaining activity at 10 µM (PKCnu/PRKD3): 53.2%
- remaining activity at 10 µM (FES/FPS): 71.1%
- remaining activity at 10 µM (MEK3): 87%
- remaining activity at 10 µM (TRKC): 91%
- remaining activity at 10 µM (PKA): 195%
- remaining activity at 10 µM (MYO3A): 75.5%
- remaining activity at 10 µM (TTBK2): 98.2%
- remaining activity at 10 µM (JAK1): 84.6%
- remaining activity at 10 µM (ASK1/MAP3K5): 83.8%
- remaining activity at 10 µM (MLCK/MYLK): 68.4%
- remaining activity at 10 µM (TRKB): 74.4%
- remaining activity at 10 µM (DMPK2): 74%
- remaining activity at 10 µM (DCAMKL2): 68.8%
- remaining activity at 10 µM (TESK2): 81.8%
- remaining activity at 10 µM (PAK6): 84.2%
- remaining activity at 10 µM (MSK2/RPS6KA4): 59.7%
- remaining activity at 10 µM (EPHA3): 117%
- remaining activity at 10 µM (HCK): 91%
- remaining activity at 10 µM (PKCb1): 91.2%
- remaining activity at 10 µM (TNIK): 75.5%
- remaining activity at 10 µM (CAMK4): 34.5%
- remaining activity at 10 µM (AMPK (A1/B2/G3)): 82.6%
- remaining activity at 10 µM (PLK1): 114%

Reference: paper PMC12420824, “Discovery of a selective alpha-kinase 1 inhibitor for the rare genetic disease ROSAH syndrome” (Nature Communications, 2025)
